Assay results published in USRE41151E1, “Protected forms of pharmacologically active agents and uses thereof” (Medinox, Inc., priority 2000, dated 2010).

Columns and labels:
[1] = Plasma pharmacokinetics of naproxen after oral administration in rats; format: in vivo, rat; details: 2 mg/kg (amount of naproxen in dose)
Method: The carotid artery of Sprague-Dawley rat (250-350 g, male) was catheterized at least one day before drug administration and flushed with 30% polyvinyl pyrrolidone (PVP) (400 U/mL of heparin) to maintain patency. […] After centrifugation (13,000 rpm, 10 min, 4° C.), the plasma samples were collected and analyzed in the same day.
Aliquot of plasma sample (100 μL) was mixed with 200 μL of acetonitrile. After vortexing and centrifugation (13,000 rpm, 10 min, 4° C.), 200 μL of supernatant was removed and added to 300 μL of a 58:42 mixture of 50 mM phosphate buffer (pH 5.0) and acetonitrile. Following vortexing and centrifugation, 25 μL of supernatant was removed and analyzed by HPLC with a UV detection system.
The average plasma concentration at each time point was calculated and utilized in a pharmacokinetic analysis. Non-compartmental pharmacokinetic analysis was carried out using WinNolin (Pharsight, Mountainview, Calif.) to calculate the maximum concentration (Cmax), time to maximum concentration (Tmax), area under the curve from zero to the last time point (AUClast), the area under the curve from zero to infinite time (AUCinf), and the terminal phase half life (Beta-t1/2).

[2] = system: Sprague-Dawley rats; assay: Rat carrageenan-induced hindlimb edema model, paw volume increase; format: in vivo; details: for paw volume increase, 4 Hours / paw volume increase, 5 Hours: one hour before carrageenan
Method: Efficacy of NSAIDs in acute inflammation can be estimated by using intraplanar injection of carrageenan in the rat. Sprague-Dawley rats (200-250 g male) are injected intradermally in the footpad with 50 μl of a 1% carrageenan solution in PBS. Swelling of the injected paw is measured 3 & 4 hours later, using a plethysmometer.

- AUFINF [1]: 55 ± 7 μg * ht/mL
Structure (SMILES): COc1ccc2cc([C@H](C)C(=O)O)ccc2c1 [Naproxen]
- paw volume increase, 4 Hours ([2]; naproxen 1 mg/kg oral): 0.63 ± 0.07
- paw volume increase, 5 Hours ([2]; naproxen 1 mg/kg oral): 0.75 ± 0.08
- paw volume increase, 4 Hours ([2]; naproxen 10 mg/kg oral): 0.32 ± 0.05
- paw volume increase, 5 Hours ([2]; naproxen 10 mg/kg oral): 0.39 ± 0.07
- reduction in swelling ([2]; oral 10 mg/kg one hour before carrageenan, at both time points): approximately 50%
